The experiment relates to high-fat diet-induced obesity animal models. As to conditions: oral formate vs high-fat diet control group. An excerpt:
In order to investigate whether formic acid actually has an anti-obesity effect, the present inventors orally administered formate into high-fat diet-induced obesity animal models. […] The patent application procedure of the above-described contents is under way, separately from the present disclosure.

For `O=CO` [formate], the blood cholesterol content result is listed as “significantly reduced”, the blood triglyceride content result is on record as “significantly reduced”, the body weight increase entry was “inhibited” and the fat cell size result is “decreased”. Besides, the “kidney fat weight value” is given as “lowered”.
